Source: PMC4854315, “Discovery of a novel allosteric inhibitor-binding site in ERK5: comparison with the canonical kinase hinge ATP-binding site” (Acta Crystallographica. Section D, Structural Biology, 2016)

What was measured:
Experiment in all cases: Z'-LYTE kinase panel
Type in all cases: biochemical
PRKCB2 (PKC beta II) = biological target: T1, PRKCB2 (PKC beta II) (Homo sapiens, UniProt P05771)
T1 construct: purchased ThermoFisher (SelectScreen, Z'-LYTE)
In short: (§1)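 Z′-LYTE, standard conditions; 10 µM test compound; values = % inhibition; broad panel of 225 kinases.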

PDK1 Direct = biological target: T2, PDK1 Direct (Homo sapiens, UniProt O15530)
T2 construct: purchased ThermoFisher (SelectScreen, Z'-LYTE)
T2 sequence (O15530 1-556): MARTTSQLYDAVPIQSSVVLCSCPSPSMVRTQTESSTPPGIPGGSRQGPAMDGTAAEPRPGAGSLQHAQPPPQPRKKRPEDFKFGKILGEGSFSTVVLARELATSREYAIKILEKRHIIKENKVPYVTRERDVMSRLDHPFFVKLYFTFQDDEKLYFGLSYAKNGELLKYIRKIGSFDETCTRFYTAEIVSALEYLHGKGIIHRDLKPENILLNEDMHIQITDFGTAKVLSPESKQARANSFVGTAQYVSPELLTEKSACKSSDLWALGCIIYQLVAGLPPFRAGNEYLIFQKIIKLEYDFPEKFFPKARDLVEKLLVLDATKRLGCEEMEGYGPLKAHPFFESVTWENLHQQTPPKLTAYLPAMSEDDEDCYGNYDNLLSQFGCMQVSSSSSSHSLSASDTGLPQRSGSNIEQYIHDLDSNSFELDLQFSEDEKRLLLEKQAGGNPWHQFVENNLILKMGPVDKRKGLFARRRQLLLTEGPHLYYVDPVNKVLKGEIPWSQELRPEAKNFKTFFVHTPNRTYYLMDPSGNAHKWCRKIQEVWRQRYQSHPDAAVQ
In short: as §1

RPS6KA4 (MSK2) = biological target: T3, RPS6KA4 (MSK2) (Homo sapiens, UniProt O75676)
T3 construct: purchased ThermoFisher (SelectScreen, Z'-LYTE)
T3 sequence (O75676 whole entry): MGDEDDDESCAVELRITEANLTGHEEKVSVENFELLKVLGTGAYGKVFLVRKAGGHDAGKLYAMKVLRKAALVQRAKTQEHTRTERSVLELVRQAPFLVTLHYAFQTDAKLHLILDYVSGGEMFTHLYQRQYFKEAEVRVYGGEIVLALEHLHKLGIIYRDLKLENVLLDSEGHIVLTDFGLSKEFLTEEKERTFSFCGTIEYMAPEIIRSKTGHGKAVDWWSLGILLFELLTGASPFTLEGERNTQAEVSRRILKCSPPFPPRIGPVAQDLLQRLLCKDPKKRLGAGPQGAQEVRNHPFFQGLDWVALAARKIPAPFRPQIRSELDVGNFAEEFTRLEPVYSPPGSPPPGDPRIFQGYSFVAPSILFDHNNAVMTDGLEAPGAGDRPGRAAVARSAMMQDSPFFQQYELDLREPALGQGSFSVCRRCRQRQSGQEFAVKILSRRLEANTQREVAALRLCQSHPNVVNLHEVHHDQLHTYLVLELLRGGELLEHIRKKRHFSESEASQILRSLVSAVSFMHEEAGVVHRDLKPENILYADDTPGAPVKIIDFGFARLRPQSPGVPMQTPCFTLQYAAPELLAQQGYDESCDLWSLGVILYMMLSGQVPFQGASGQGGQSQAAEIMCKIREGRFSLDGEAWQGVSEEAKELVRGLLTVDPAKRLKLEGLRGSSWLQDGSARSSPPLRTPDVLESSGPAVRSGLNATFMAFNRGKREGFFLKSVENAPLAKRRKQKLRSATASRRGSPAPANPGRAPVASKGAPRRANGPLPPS
In short: as §1

DYRK3 = biological target: T4, DYRK3 (Homo sapiens, UniProt O43781)
T4 construct: purchased ThermoFisher (SelectScreen, Z'-LYTE)
T4 sequence (O43781 1-588): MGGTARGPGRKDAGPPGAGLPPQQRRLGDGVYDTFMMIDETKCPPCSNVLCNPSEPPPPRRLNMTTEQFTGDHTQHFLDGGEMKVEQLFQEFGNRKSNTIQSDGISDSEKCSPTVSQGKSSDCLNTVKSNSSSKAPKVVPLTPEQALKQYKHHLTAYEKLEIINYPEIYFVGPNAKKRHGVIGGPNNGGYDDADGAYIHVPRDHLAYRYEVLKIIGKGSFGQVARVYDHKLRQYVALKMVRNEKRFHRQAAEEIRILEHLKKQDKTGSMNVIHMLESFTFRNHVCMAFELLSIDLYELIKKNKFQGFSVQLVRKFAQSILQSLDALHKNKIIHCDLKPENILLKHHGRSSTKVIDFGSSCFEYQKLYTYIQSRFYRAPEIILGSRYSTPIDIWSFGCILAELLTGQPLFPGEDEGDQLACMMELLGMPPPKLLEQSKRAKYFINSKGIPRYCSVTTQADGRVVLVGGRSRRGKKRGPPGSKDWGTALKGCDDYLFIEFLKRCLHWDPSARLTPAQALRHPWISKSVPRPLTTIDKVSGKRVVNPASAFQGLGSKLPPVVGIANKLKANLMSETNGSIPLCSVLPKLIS
In short: as §1

PLK2 = biological target: T5, PLK2 (Homo sapiens, UniProt Q9NYY3)
T5 construct: purchased ThermoFisher (SelectScreen, Z'-LYTE)
T5 sequence (Q9NYY3 whole entry): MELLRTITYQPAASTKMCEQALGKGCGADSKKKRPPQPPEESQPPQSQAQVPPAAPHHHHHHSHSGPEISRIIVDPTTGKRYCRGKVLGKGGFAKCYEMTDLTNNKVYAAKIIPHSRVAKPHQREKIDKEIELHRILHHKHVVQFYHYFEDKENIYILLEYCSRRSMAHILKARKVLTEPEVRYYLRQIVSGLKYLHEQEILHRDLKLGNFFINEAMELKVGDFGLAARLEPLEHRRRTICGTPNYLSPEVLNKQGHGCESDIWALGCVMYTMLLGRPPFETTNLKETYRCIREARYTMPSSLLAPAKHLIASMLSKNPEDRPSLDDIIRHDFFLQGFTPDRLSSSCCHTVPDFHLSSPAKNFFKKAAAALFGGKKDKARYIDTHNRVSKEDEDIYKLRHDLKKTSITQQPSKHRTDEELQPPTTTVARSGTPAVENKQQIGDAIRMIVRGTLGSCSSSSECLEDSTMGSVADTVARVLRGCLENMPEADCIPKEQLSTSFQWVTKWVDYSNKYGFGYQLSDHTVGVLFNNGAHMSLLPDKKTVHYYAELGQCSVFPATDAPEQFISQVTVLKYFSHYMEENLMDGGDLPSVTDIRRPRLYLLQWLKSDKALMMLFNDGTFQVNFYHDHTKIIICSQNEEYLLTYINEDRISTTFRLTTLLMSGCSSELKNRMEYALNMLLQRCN
In short: as §1

PTK2 (FAK) = biological target: T6, PTK2 (FAK) (Homo sapiens, UniProt Q05397)
T6 construct: purchased ThermoFisher (SelectScreen, Z'-LYTE)
T6 sequence (Q05397 whole entry): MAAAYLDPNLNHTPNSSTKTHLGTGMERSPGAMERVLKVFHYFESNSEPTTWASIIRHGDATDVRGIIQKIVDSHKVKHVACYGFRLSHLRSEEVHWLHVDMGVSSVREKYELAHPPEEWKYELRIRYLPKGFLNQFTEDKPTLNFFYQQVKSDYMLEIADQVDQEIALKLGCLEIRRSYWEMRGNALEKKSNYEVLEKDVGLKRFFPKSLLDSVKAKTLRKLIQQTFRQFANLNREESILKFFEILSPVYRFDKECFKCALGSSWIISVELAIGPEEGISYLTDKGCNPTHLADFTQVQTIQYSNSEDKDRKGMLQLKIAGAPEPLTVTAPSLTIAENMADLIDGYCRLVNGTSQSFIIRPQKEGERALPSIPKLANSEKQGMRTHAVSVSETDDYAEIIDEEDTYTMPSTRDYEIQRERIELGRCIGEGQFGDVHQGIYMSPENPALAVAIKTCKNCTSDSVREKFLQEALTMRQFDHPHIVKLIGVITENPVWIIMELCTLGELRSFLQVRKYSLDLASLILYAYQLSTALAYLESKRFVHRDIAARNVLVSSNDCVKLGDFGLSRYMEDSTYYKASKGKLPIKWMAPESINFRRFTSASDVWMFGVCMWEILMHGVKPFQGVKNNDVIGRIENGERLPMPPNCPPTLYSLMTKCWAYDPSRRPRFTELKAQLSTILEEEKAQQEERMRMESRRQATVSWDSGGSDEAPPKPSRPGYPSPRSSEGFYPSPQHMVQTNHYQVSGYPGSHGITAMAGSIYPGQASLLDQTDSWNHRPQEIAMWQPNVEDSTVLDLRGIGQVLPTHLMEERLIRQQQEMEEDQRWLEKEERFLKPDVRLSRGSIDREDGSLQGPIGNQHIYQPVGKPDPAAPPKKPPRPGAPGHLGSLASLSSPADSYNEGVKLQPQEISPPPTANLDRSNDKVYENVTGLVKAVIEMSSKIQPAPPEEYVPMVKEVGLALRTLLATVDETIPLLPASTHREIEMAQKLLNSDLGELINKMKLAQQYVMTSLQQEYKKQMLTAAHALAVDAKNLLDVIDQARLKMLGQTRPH
In short: as §1

KIT = biological target: T7, KIT (Homo sapiens, UniProt P10721)
T7 construct: purchased ThermoFisher (SelectScreen, Z'-LYTE)
T7 sequence (P10721 26-976): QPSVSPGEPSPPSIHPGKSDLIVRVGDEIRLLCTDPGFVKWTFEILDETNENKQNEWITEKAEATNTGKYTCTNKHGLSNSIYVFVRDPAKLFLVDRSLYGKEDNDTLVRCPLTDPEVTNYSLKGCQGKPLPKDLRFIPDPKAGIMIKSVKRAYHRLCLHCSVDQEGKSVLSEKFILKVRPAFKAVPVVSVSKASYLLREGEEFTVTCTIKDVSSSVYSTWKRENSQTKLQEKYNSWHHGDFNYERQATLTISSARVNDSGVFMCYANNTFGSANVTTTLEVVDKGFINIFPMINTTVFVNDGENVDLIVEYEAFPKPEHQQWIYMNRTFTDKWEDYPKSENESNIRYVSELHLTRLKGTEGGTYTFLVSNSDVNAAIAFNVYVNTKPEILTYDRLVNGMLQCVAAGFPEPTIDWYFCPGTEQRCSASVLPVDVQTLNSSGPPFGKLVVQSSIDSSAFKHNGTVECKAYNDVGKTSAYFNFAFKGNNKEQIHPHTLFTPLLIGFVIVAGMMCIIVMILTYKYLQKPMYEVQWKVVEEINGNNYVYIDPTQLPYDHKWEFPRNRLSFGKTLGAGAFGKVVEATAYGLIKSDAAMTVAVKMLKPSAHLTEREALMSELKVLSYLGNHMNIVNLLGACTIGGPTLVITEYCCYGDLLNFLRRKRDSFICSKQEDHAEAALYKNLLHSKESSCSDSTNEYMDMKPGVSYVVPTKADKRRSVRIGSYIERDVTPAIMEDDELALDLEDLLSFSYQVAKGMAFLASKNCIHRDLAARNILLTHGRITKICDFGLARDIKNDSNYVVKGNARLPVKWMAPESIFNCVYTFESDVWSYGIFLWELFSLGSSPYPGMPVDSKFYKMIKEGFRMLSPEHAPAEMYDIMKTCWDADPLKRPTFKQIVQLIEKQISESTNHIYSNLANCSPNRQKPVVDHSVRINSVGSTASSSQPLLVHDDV
In short: as §1

GRK7 = biological target: T8, GRK7 (Homo sapiens, UniProt Q8WTQ7)
T8 construct: purchased ThermoFisher (SelectScreen, Z'-LYTE)
T8 sequence (Q8WTQ7 1-553): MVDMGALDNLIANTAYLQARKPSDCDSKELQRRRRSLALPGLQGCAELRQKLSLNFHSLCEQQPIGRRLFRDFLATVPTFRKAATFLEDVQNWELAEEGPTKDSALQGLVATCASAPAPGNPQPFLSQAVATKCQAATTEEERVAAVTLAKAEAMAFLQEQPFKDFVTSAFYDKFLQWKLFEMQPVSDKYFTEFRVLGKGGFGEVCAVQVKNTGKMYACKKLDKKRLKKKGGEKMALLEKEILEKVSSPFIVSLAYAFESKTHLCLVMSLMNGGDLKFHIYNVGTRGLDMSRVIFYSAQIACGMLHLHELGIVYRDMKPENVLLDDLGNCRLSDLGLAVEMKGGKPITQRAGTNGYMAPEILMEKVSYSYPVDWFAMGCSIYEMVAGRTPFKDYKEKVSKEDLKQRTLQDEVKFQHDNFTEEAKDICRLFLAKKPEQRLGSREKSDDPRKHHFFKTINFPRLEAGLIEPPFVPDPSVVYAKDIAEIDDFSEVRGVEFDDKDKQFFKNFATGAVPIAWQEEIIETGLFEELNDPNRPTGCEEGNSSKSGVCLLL
In short: as §1

JAK1 = biological target: T9, JAK1 (Homo sapiens, UniProt P23458)
T9 construct: purchased ThermoFisher (SelectScreen, Z'-LYTE)
T9 sequence (P23458 whole entry): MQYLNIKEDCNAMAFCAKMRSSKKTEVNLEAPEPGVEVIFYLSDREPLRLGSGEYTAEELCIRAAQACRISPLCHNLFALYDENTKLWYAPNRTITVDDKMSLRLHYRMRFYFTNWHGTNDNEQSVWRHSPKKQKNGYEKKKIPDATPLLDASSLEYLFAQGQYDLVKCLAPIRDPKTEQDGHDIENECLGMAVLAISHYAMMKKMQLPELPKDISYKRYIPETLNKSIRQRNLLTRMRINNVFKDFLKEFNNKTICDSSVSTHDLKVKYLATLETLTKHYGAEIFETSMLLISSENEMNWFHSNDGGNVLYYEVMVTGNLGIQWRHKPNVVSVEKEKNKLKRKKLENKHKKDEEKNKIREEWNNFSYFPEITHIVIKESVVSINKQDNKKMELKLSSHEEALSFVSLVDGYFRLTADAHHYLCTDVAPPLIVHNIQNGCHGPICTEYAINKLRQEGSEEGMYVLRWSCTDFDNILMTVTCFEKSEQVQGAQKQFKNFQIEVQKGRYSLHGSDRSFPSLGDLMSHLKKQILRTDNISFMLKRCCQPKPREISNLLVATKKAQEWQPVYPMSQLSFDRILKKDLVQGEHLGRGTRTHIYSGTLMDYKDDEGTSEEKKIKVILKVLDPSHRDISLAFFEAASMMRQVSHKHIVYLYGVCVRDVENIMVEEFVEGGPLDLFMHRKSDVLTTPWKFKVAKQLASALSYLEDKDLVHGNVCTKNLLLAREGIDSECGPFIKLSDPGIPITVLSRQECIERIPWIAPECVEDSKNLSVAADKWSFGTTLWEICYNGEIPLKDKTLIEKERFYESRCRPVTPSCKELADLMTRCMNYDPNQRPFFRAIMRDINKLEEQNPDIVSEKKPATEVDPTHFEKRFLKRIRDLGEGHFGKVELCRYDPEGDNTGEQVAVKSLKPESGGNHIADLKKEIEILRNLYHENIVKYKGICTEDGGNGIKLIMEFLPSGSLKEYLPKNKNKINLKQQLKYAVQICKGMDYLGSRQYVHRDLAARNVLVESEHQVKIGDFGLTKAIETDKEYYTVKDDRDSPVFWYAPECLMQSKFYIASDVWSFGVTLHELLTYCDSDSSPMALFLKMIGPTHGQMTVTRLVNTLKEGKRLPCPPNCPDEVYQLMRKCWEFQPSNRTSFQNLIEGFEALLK
In short: as §1

STK22B (TSSK2) = biological target: T10, STK22B (TSSK2) (Homo sapiens, UniProt Q96PF2)
T10 construct: purchased ThermoFisher (SelectScreen, Z'-LYTE)
T10 sequence (Q96PF2 1-358): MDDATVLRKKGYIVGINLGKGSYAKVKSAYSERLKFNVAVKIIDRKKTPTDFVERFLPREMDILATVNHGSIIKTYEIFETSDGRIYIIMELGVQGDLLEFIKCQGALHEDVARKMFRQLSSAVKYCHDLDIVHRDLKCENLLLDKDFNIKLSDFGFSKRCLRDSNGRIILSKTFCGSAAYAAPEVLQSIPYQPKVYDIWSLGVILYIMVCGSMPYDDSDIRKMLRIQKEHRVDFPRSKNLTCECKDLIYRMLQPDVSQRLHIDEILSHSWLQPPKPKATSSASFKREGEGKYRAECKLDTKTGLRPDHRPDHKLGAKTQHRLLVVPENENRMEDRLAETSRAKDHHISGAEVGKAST
In short: as §1

JAK2 = biological target: T11, JAK2 (Homo sapiens, UniProt O60674)
T11 construct: purchased ThermoFisher (SelectScreen, Z'-LYTE)
In short: as §1

With “XMD8-92 [Compound 2, reference compound]” the “PRKCB2 (PKC beta II) % Inhibition” value (PRKCB2 (PKC beta II); 10 µM compound, ATP Km app) was 38%, the “PDK1 Direct % Inhibition” value (PDK1 Direct; 10 µM compound, ATP Km app) was -15% and the “RPS6KA4 (MSK2) % Inhibition” value (RPS6KA4 (MSK2); 10 µM compound, ATP Km app) was 12%. For the same molecule, the “DYRK3 % Inhibition” value (DYRK3; 10 µM compound, ATP Km app) was 31%, the “PLK2 % Inhibition” value (PLK2; 10 µM compound, ATP Km app) was 12% and the “PTK2 (FAK) % Inhibition” value (PTK2 (FAK); 10 µM compound, ATP Km app) was 47%. The “KIT % Inhibition” value (KIT; 10 µM compound, ATP Km app) was -5.51%, the “GRK7 % Inhibition” value (GRK7; 10 µM compound, ATP Km app) was 39% and the “JAK1 % Inhibition” value (JAK1; 10 µM compound, ATP Km app) was 32%. The “STK22B (TSSK2) % Inhibition” value (STK22B (TSSK2); 10 µM compound, ATP Km app) was -0.837% and the “JAK2 % Inhibition” value (JAK2; 10 µM compound, ATP Km app) was 95%.
`Cc1ncc(-c2nc(Nc3ccc(C(=O)NCCN4CCCCC4)cc3)ncc2F)n1C(C)C` [Compound 3] was tested, and the inhibition at 10 µM (PRKCB2 (PKC beta II)) was 89%, the inhibition at 10 µM (PDK1 Direct) was 89% and the inhibition at 10 µM (RPS6KA4 (MSK2)) was 89%. The inhibition at 10 µM (DYRK3) was 93%, the inhibition at 10 µM (PLK2) was 48% and the inhibition at 10 µM (PTK2 (FAK)) was 94%. It also gave an inhibition at 10 µM (KIT) of 31%, an inhibition at 10 µM (GRK7) of 40% and an inhibition at 10 µM (JAK1) of 101%. The inhibition at 10 µM (STK22B (TSSK2)) was -7% and the inhibition at 10 µM (JAK2) was 92%.
`Cc1cc(Nc2nc(N)nn2C(=O)NC(C)C)ccc1Cl` [Compound 5] showed an inhibition at 10 µM (PRKCB2 (PKC beta II)) of -12%, an inhibition at 10 µM (PDK1 Direct) of -1.67% and an inhibition at 10 µM (RPS6KA4 (MSK2)) of 1.89%. It also gave an inhibition at 10 µM (DYRK3) of 0.141%, an inhibition at 10 µM (PLK2) of 63% and an inhibition at 10 µM (PTK2 (FAK)) of 10%. For the same molecule, the inhibition at 10 µM (KIT) was 11%, the inhibition at 10 µM (GRK7) was 10% and the inhibition at 10 µM (JAK1) was 60%. For the same molecule, the inhibition at 10 µM (STK22B (TSSK2)) was -10% and the inhibition at 10 µM (JAK2) was 66%.
